Data published in patent US12042481B2, “Use of (1R,5S)-(+)-1-(naphthalen-2-yl)-3-azabicyclo[3.1.0]hexane in the treatment of conditions affected by monoamine neurotransmitters” (priority 2011, dated 2024).

Legend:
[1] = system: monoamine uptake transporters; experiment: Microdialysis in rat prefrontal cortex (extracellular NE, DA, 5-HT); format: in vivo
Protocol: To evaluate the effect of (1R,5S)-(+)-1-(naphthalen-2-yl)-3-azabicyclo[3.1.0]hexane on monoamine uptake transporters in vivo, microdialysis studies were performed in rat brain regions.
Microdialysis studies were conducted using male Wistar rats (250-300 g) bred at the Institute of Pharmacology, the Polish Academy of Sciences, Krakow, Poland. The rats (250-300 g) were housed on a 12 h/12 h light/dark cycle at a constant temperature and humidity, and were provided with food and water ad libitum. The microdialysis procedure has been previously described (Popik et al., 2006). Briefly, the rats were anaesthetized with ketamine (75 mg/kg IM) and xylazine (10 mg/kg IM), placed in a stereotaxic apparatus (David Kopf Instruments, Tujunga, CA, USA) with their skulls exposed. Small holes were drilled in the skull for insertion of the vertical microdialysis probes into the prefrontal cortex and striatum, respectively using the following coordinates: 2.9 mm anterior from the bregma, 0.8 mm lateral from the sagittal suture and −4.5 ventral from the dura surface (prefrontal cortex); 1.8 mm anterior from the bregma, 2.7 mm lateral from the sagittal suture and −7.0 mm ventral from the dura surface (striatum) (Paxinos and Watson, 1998). Microdialysis probes were constructed by inserting two fused silica tubes (30 and 35 mm long, 150 μm o.d.; Polymicro Technologies Inc., Phoenix, AZ, USA) into a microdialysis fiber (220 μm o.d.; AN69, Hospal, Bologna, Italy). The tube assembly was placed in a stainless steel cannula (22 G, 10 mm) forming the shaft of the probe. Portions of the inlet and outlet tubes were individually placed inside polyethylene PE-10 tubing and were glued for protection. The free end of the dialysis fibre was sealed, and 3 mm of the exposed length used for dialysis in prefrontal cortex and 4 mm for striatum. One day after the surgery and probe implantation, the inlet of the dialysis probes was connected to a syringe pump (BAS, IN, USA) which delivered an artificial cerebrospinal fluid (aCSF) composed of [in mM]: NaCl 145, KCl 2.7, MgCl2 1.0, CaCl2 1.2; pH=7.4 at a flow rate of 1.5 μl/min. After a two hour rinsing period to stabilize the extracellular level of neurotransmitters, 3-4 baseline samples were collected in 20 minute sampling periods. Next, (1R,5S)-(+)-1-(naphthalen-2-yl)-3-azabicyclo[3.1.0]hexane (dissolved in 0.9% saline solution) at doses of 10 or 20 mg/kg intraperioneally (i.p.) was administered to the animals at 4 ml/kg and consequent dialysate fractions were collected every 20 min for 3 hrs. At the end of the experiments the rats were sacrificed and their brains were histologically examined to validate the correct probe placement
Dopamine, and serotonin (5-HT) were analysed by HPLC with electrochemical detection. Chromatography was performed using an LC-10 AD pump (Shimadzu Europa GmbH, Warszawa, Poland), an LC-4B amperometric detector with a cross-flow detector cell (BAS, IN, USA) and BDS-Hypersil C18 analytical column (3×100 mm, 3 μm, Thermo Electron Corp., UK). The mobile phase was composed of 0.1 M monochloracetic acid adjusted to pH=3.7 with 3 M sodium hydroxide, 0.5 mM EDTA, 25 mg/L 1-octanesulfonic acid sodium salt, 5.7% methanol, and 2.5% acetonitrile. The flow rate was 0.5 ml/min, and the applied potential of a 3 mm glassy carbon electrode was +600 mV with a sensitivity of 2 nA/V. Norepinephrine was measured using HPLC system equipped with a P580 pump (Dionex, CA, USA) connected to a BAS injection valve with a 10 μI injection loop and a BDS-Hypersil analytical column (2.0×100 mm, a 3 μm, Thermo Electron Corp., UK). The mobile phase was composed of 0.05 M potassium dihydrogen phosphate (adjusted to pH=3.7 with ortho-phosphoric acid), 0.5 mM EDTA, 150 mg/L 1-octanesulfonic acid sodium salt, 10 mM NaCl, and 1.2% acetonitrile. The flow rate was 180 μl/min. NE in the dialysates was detected with a BAS UniJet radial flow detector cell coupled to a LC-4B amperometric detector (BAS, IN, USA). […]

[2] = system: male CD-1 (Crl.) derived mice; experiment: Mouse tail suspension test; format: in vivo
Protocol: The behavioral effects of (1R,5S)-(+)-1-(naphthalen-2-yl)-3-azabicyclo[3.1.0]hexane were evaluated in a model predictive of antidepressant activity, the mouse tail suspension test (Cryan and Mombereau, 2004).
For the tail test suspension test, male CD-1 (Crl.) derived mice weighing 20-26 g were provided by BioLasco Taiwan (Charles River Laboratories Technology Licensee). All animals were maintained in a controlled temperature (23° C.-24° C.) and humidity (60%-70%) environment with 12 hours light dark cycles for at least one week prior to use. For the tail suspension test, (1R,5S)-(+)-1-(naphthalen-2-yl)-3-azabicyclo[3.1.0]hexane was administered orally at dose from 10-40 mg/kg p.o. to groups of 10 CD-1 derived male mice by MDS Pharma Services, Taipei, Taiwan 112, R. O. C. (1R,5S)-(+)-1-(naphthalen-2-yl)-3-azabicyclo[3.1.0]hexane was dissolved in 2% Tween 80 and was administered at 10 ml/kg 60 minutes prior to the tail suspension test. During the test, the mice were suspended on the edge of a shelf 58 cm above a table top by adhesive tape placed approximately 1 cm from the tip of the tail. The duration of immobility was recorded for a period of 5 minutes (during 2-7 minutes of the tail suspension). The duration of the effects of (1R,5S)-(+)-1-(naphthalen-2-yl)-3-azabicyclo[3.1.0]hexane was also evaluated in the tail suspension test by varying pretreatment time.

Question: c1ccc2cc([C@]34CNC[C@H]3C4)ccc2c1 [(1R,5S)-(+)-1-(naphthalen-2-yl)-3-azabicyclo[3.1.0]hexane] was tested. Which “time by which extracellular 5-HT was markedly increased” value [1] did it give?
Answer: Its value is no more than 40 min.

Question: And the “peak increase of extracellular NE” value ([1]; 10 mg/kg i.p.)?
Answer: Its value is “over 325 % of baseline”.

Question: And the “peak increase of extracellular NE” value ([1]; 20 mg/kg i.p.)?
Answer: The value was > 375 % of baseline.

Question: And the “duration of increase of extracellular DA” value ([1]; 10 and 20 mg/kg i.p.)?
Answer: Its value is “over 3 hours”.

Question: What about the “duration of increase of extracellular NE” value ([1]; 10 and 20 mg/kg i.p.) of the same molecule?
Answer: The value was “over 3 hours”.

Question: And the “peak increase of extracellular 5-HT” value ([1]; 10 and 20 mg/kg i.p.)?
Answer: Its value is 300 % of baseline.

Question: And the “time after administration at which extracellular NE was markedly increased” value ([1]; 10 and 20 mg/kg i.p.)?
Answer: The value was 40 min.

Question: And the “time by which extracellular DA was increased” value ([1]; 10 and 20 mg/kg i.p.)?
Answer: Its value is no more than 20 min.

Question: What about the “duration of significant increase of extracellular 5-HT” value ([1]; both doses 10 and 20 mg/kg i.p.) of the same molecule?
Answer: The value was “over 3 hours”.

Question: And the “peak increase of extracellular DA” value ([1]; the two doses 10 and 20 mg/kg i.p.)?
Answer: The value was 240-300 % of baseline.

Question: What about the immobility ([2]; 20 mg/kg p.o., at 30 minutes) of the same molecule?
Answer: The immobility was 84 % of control.

Question: What about the immobility ([2]; 20 mg/kg p.o., at 60 minutes) of the same molecule?
Answer: The immobility was 82 % of control.

Question: And the immobility ([2]; 20 mg/kg p.o., at 120 minutes)?
Answer: Its immobility is 75 % of control.

Question: And the immobility ([2]; 20 mg/kg p.o., at 240 minutes)?
Answer: The immobility was 47 % of control.

Question: What about the immobility ([2]; 40 mg/kg p.o., 60 minutes prior to test) of the same molecule?
Answer: Its immobility is 87 % of control.

Question: And the duration of effect ([2]; oral)?
Answer: The duration of effect was “over 4 hours”.

Question: And the “efficacy compared with desipramine (30 mg/kg p.o.)” value ([2]; oral)?
Answer: Its value is “equivalent to the tricyclic antidepressant desipramine”.

Question: What about the “minimal effective dose for reducing time immobilized” value ([2]; oral, 60 minutes prior to test) of the same molecule?
Answer: The value was 20 mg/kg.
